Like-named read-outs stand apart in the source and are kept apart here.
Columns and labels:
[1] = tested on: Bee Brain Activity for Ac-luciferin (esterase activity of bee brain extract); assay type: biochemical, honey bees; details: for % activity: bee brain extract; for I50 (concentration of inhibitor which gives a 50% decrease in enzymatic activity as measured by bioluminescence): bee brain, Ac-luciferin substrate, 5 min
Description: (§1) 1. Sample is preincubated with a predetermined quantity (dilution 1:200) of brain preparation for 5 minutes.
(§2) 2. Luciferin acetate (200 pmoles) is added to the incubation mixture for additional 5 minutes.
(§3) 3. A portion of this […] mixture (100 μl) is withdrawn and added to the luciferase and ATP reaction mixture (1 ml).
(§4) 4. Bioluminescence reading for 2-5 seconds is monitored.
(§5) 5. The reading of the pesticide sample is compared to the control sample to quantitate the percent inhibition of the sample (see Tables 3, 4, 5 and 6) .
(§6) Insects are stored from at -20° C. or below. Insect heads are collected by dissection with a scalpel and placed in a 50 ml beaker containing approximately 15 ml ice cold 0.07M phosphate buffer, pH 7.0, containing 1 mM EDTA (ethylenediaminetetra acetic acid) and 1 μM phenylthiourea. The insect heads are gently homogenized at low speed in a Tekmar Tissumizer. Aliquots of this crude extract are transferred to microcentrifuge tubes and centrifuged. The supernatant is retained and applied to a sephadex G-25 column equilibrated with 0.07M phosphate buffer, pH 7.0, containing 1 mM EDTA and 1 μM phenylthiourea. Fractions are collected every 2 minutes and monitored for esterase activity using luciferin acetate as a substrate and measuring bioluminescence. Fractions with esterase activity are pooled and used as the insect head extract for use in the pesticide assay.
(§7) Notes: Brain extracts have been prepared primarily from honey bees, but also has been extracted from silkworm and blowflies. Protein concentration of the bee head extract is between 2 to 5 mg/ml. For the assay, 5 to 10 μl is used per assay.
(§8) 1. To 13×100 mm test tubes add 2 ml 0.07M phosphate buffer, pH 7.0. Add 25 μl positive pesticide control (organophosphate and/or carbamate pesticide), 25 μl water to negative control tube and 25 μl of test sample to another tube. If test sample contains solvent other than water, then use this solvent as the negative control tube.
(§9) 2. Add insert brain extract (5 or 10 μl depending on activity) to the 2 ml incubation mixture in step 1, vortex and incubate at 35° C. in temperature block for 10 minutes. Use timer with alarm to monitor time.
(§10) 3. At 10 minutes, add 25 μl 8.25 μM luciferin acetate solution to 2 ml incubation mixture in step 2. Reset timer to zero and restart timer.
(§11) 4. At 5 minutes, take 100 μl portion from each sample. Use separate pipette tip for each sample and add the 100 μl portion to separate 13×100 mm test tubes containing 1 ml of bioluminescence buffer.
(§12) 5. Add 30 μl ATP solution followed by 30 μl luciferase solution to one of the assay tubes in step 4. Vortex and measure bioluminescence for 2 to 5 seconds. Record value and proceed to the next tubes as above.
6. […] In the positive samples the esterolitic activity of the bee extract will be inhibited and less luciferin will form giving a low bioluminescent reading. Divide sample reading or positive control by zero control and multiply to 100 to get percent inhibition.

[2] = tested on: Silkworm Brain Activities; assay: Bioluminescence pesticide assay: inhibition of silkworm brain activities; assay type: biochemical; details: pesticide at 25 PPB
Description: as §1, §2, §3, §4, §5, §6, §7, §8, §9, §10, §11, §12
6. Zero control bioluminescence reaction will be uninhibited by pesticide and will have a high bioluminescence reading. In the positive samples the esterolitic activity of the bee extract will be inhibited and less luciferin will form giving a low bioluminescent reading. Divide sample reading or positive control by zero control and multiply to 100 to get percent inhibition.

| SMILES | % activity ([1]; 3.125 ppb pesticide) | % activity ([1]; 6.25 ppb pesticide) | % activity ([1]; 12.5 ppb pesticide) | % activity ([1]; 25 ppb pesticide) | I50 (concentration of inhibitor which gives a 50% decrease in enzymatic activity as measured by bioluminescence) [1] | % Inhibition [2] | % activity ([1]; 0.625 ppb pesticide) | % activity ([1]; 1.25 ppb pesticide) | % activity ([1]; 2.5 ppb pesticide) | also measured |
| --- | --- | --- | --- | --- | --- | --- | --- | --- | --- | --- |
| CCOP(=S)(OCC)SCCSCC [Disulfoton] | 66% | 47% | 35% | 19% | 5 ppb | 25% | – | – | – | – |
| CNC(=O)Oc1cccc2c1OC(C)(C)O2 [Bendocarb] | – | – | 50% | 26% | 12 ppb | – | – | – | – | % activity ([1]; 50 ppb pesticide): 18%; % activity ([1]; 100 ppb pesticide): 11% |
| CNC(=O)Oc1ccccc1OC(C)C [Propoxur] | – | – | 43% | 44% | 10 ppb | – | – | – | – | % activity ([1]; 3.1 ppb pesticide): 62%; % activity ([1]; 62.5 ppb pesticide): 29%; % activity ([1]; 125.0 ppb pesticide): 27% |
| COP(=O)(OC)OC(Br)C(Cl)(Cl)Br (stereo not shown) [Naled] | – | – | – | – | 0.05 ppb | 98.0% | 29% | – | – | % activity ([1]; 0.031 ppb pesticide): 50%; % activity ([1]; 0.125 ppb pesticide): 30%; % activity ([1]; 0.250 ppb pesticide): 25% |
| CNC(=O)Oc1cccc2c1OC(C)(C)C2 [Carbofuran] | – | 59% | 41% | 32% | 8 ppb | – | – | – | – | % activity ([1]; 50 ppb pesticide): 22% |
| CCOC(=O)CC(SP(=S)(OC)OC)C(=O)OCC (stereo not shown) [Malathion] | – | 53% | 50% | 27% | 6 ppb | – | – | – | – | % activity ([1]; 50 ppb pesticide): 27% |
| CCOP(=S)(OCC)Oc1nc(Cl)c(Cl)cc1Cl [Chlorpyrifos] | 13% | 10% | – | – | 1 ppb | – | 68% | 34% | 24% | – |
| COP(=S)(OC)Oc1ccc([N+](=O)[O-])cc1 [Methyl parathion] | – | – | – | – | 1 ppb | 0% | 62% | 40% | 23% | – |
| CNC(=O)ON=C(C)SC [Methomyl] | 45% | 16% | 20% | 12% | 4 ppb | – | – | – | – | – |
| CCOP(=S)(OCC)Oc1cc(C)nc(C(C)C)n1 [Diazinon] | – | – | – | 40% | 15 ppb | 0% | – | – | – | % activity ([1]; 100 ppb pesticide): 28% |
| CCOP(=S)(OCC)SCSCC [Phorate] | 23% | 8% | 3% | – | 2 ppb | 50.5% | – | 70% | 29% | – |
| COC(=O)C=C(C)OP(=O)(OC)OC [Mevinphos] | 12% | 9% | – | – | 2 ppb | 50% | 52% | 48% | 24% | % activity ([1]; 0.3125 ppb pesticide): 64% |
| CCOP(=S)(OCC)SCSP(=S)(OCC)OCC [Ethion] | – | – | – | – | 2 ppb | 77.0% | 71% | 65% | 37% | % activity ([1]; 0.3125 ppb pesticide): 84% |
| COP(=O)(OC)OC=C(Cl)Cl [DDVP] | – | – | – | – | 0.004 ppb | 100.0% | – | – | – | % activity ([1]; 0.0013 ppb pesticide): 74%; % activity ([1]; 0.0023 ppb pesticide): 49%; % activity ([1]; 0.0028 ppb pesticide): 60%; % activity ([1]; 0.0057 ppb pesticide): 52%; % activity ([1]; 0.011 ppb pesticide): 25% |
| CC[S+]([O-])CCSP(=O)(OC)OC (stereo not shown) [Oxydemeton-methyl] | – | – | – | 21% | 1 ppb | 0% | 43% | 47% | 37% | % activity ([1]; 0.3125 ppb pesticide): 90% |

Source: patent US5283180A, “Bioluminescence method for the determination of pesticides” (priority 1992, dated 1994)
